17 compounds from patent publication US20110183978A1, “Phenylpyri(mi)dinylazoles” (Bayer CropScience AG, priority 2009, published 2011) can be followed below.

Structures can show the parent of a compound that is named as a salt. Where two headings read alike, the source gives them in different places.

In one data set the test system is Alternaria solani. The data set is described as follows: Example M: in vivo test on Alternaria solani (leaf blotch disease/tomato/protective). The settings on record: 168 h, tomato, protective, 500 ppm active substance, assessed 7 days after inoculation, read-out: % Wirkungsgrad (activity level). In short, it runs like this:
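Protective test: young tomato plants sprayed with active substance (in DMF with alkylaryl polyglycol ether emulsifier, diluted in water) at the stated dosage, then inoculated with Alternaria solani. Disease assessed 7 days after inoculation.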

For data set [1], the system named is Botrytis cinerea. The data set is described as follows: Example B: in vivo test on Botrytis cinerea (grey mould on cucumbers). The settings on record: cucumber plants sprayed 24 hours before inoculation, scored after 5-7 days, read-out: % Wirkungsgrad. The essentials: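 Cucumber plants (Vert petit de Paris) sprayed at cotyledon stage Z11 with aqueous suspension of compound (acetone/Tween/DMSO), then inoculated with spores from 15-day-old culture in gelatine/fructose nutrient solution. Kept 5-7 days at 15-11° C, then scored against untreated sprayed controls.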

The subject of data set [2] is Mycosphaerella graminicola. The data set is described as follows: Example G: in vivo test on Mycosphaerella graminicola (wheat leaf blotch disease). The settings on record: Zymoseptoria tritici, wheat plants sprayed 24 hours before inoculation, scored after 21 to 28 days, read-out: % Wirkungsgrad. The essentials: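 Scipion wheat at first-leaf stage (10 cm) was sprayed with aqueous active-substance suspension, then inoculated 24 hours later with Mycosphaerella graminicola spores (500,000 spores per ml) from 7 day-old culture. Disease was scored after 21 to 28 days against untreated sprayed controls.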

A further data set concerns Peronospora parasitica. The data set is described as follows: Example A: in vivo test on Peronospora parasitica (downy mildew on white cabbage). The settings on record: Hyaloperonospora parasitica, 120 h, cabbage plants sprayed 24 hours before inoculation, scored after 5 days, read-out: % Wirkungsgrad. The essentials:
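Cabbage plants (Eminence) at cotyledon stage sprayed with aqueous compound suspension (acetone/Tween/DMSO, diluted with water), then inoculated 24 h later with P. parasitica spores at 50,000 spores/ml. After 5 days in moist atmosphere at ca. 20 °C, disease scored against untreated sprayed controls.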

The next data set in a line: physchem. The following applies: LogPA (logP of the stated pure compound or, in a mixture, of the main isomer, 1-substituted 3-aryl-1H-pyrazole).
The test system of another data set is Alternaria brassicae. The data set is described as follows: Example C: in vivo test on Alternaria brassicae (leaf spot disease on radishes). The following applies: 500 ppm; radish plants sprayed 24 hours before inoculation; scored after 6-7 days. The method, then:
In Vivo Test on Alternaria Brassicae (Leaf Spot Disease on Radishes) An aqueous suspension of the active substance was prepared by homogenization of a mixture of acetone/Tween/dimethyl sulphoxide and subsequent dilution with water to the desired concentration. Radish plants (variety: Pernot) are sown in cultivation dishes on a peat-pozzolanic earth substrate (50/50) at 18-20° C. and sprayed at the cotyledon stage with the aqueous suspension described above. As a control, plants are sprayed with an aqueous solution with no active substance. After 24 hours, the plants are inoculated by spraying with an aqueous suspension of Alternaria brassicae spores (40,000 spores per ml). The spores are derived from a 12 to 13 day-old culture. The inoculated radish plants are incubated for 6-7 days at ca. 18° C. in a humid atmosphere. After 6-7 days they are scored in comparison with the control plants.

Data set [3] relates to Sphaerotheca fuliginea. The data set is described as follows: Example D: in vivo test on Sphaerotheca fuliginea (powdery mildew on cucumber). The following applies: Podosphaera fuliginea, 288 h, cucumber plants sprayed 24 hours before inoculation, scored after 12 days, read-out: % Wirkungsgrad. The essentials:
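Cucumber plants at cotyledon stage Z10 were sprayed with the compound suspended in acetone/Tween/DMSO diluted with water. After 24 hours they were inoculated with Sphaerotheca fuliginea spores (100,000/ml) and incubated at ca. 20/25° C. and 60/70% RH. Disease was scored after 12 days against untreated sprayed controls.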

A further data set deals with Venturia inaequalis. The data set is described as follows: Example O: in vivo test on Venturia inaequalis (apple scab/protective). The settings on record: 240 h, protective, assessment 10 days after inoculation, read-out: % Wirkungsgrad. The essentials:
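Protective test: active substance mixed with solvent and alkylaryl polyglycol ether emulsifier, diluted with water, and sprayed on young plants at the stated dosage before Venturia inaequalis inoculation. Scab assessed 10 days after inoculation.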

The subject of the next data set is Fusarium graminearum. The data set is described as follows: microbe, parasite or virus in culture. In kind it is cell-based.
In a further data set the test system is Aspergillus parasiticus. The data set is described as follows: microbe, parasite or virus in culture. In kind it is cell-based. The following applies: 168 h.
In a further data set the test system is Puccinia recondita. The data set is described as follows: Example F: in vivo test on Puccinia recondita (wheat brown rust). The settings on record: 240 h, wheat plants sprayed 24 hours before inoculation, scored after 10 days, read-out: % Wirkungsgrad. The method, then: In Vivo Test on Puccinia Recondita (Wheat Brown Rust) An aqueous suspension of the active substance was prepared by homogenization of a mixture of acetone/Tween/dimethyl sulphoxide and subsequent dilution with water to the desired concentration. Wheat plants (variety: Scipion) are sown in cultivation dishes on a peat-pozzolanic earth substrate (50/50) at 12° C. and sprayed at the first-leaf stage (10 cm size) with the aqueous suspension described above. As a control, plants are sprayed with an aqueous solution with no active substance. After 24 hours the plants are inoculated by spraying with an aqueous suspension of Puccinia recondita spores (100,000 spores per ml). The spores are derived from a 10 day-old infected wheat crop and are suspended in water with 2.5 ml/l Tween. […] After 10 days they are scored in comparison with the control plants.

The next data set relates to Pyricularia oryzae. The data set is described as follows: whole plant or invertebrate. The settings on record: 120 h, read-out: % Activity level. In kind it is in vivo.
The next data set deals with Plasmopara viticola. The data set is described as follows: Example N: in vivo test on Plasmopara viticola (downy mildew, vine/protective). The following applies: 144 h, vine, protective, assessment 6 days after inoculation, read-out: % Wirkungsgrad. In short, it runs like this: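 Protective test: young vine plants were sprayed with active substance diluted in water from a solvent/alkylaryl polyglycol ether emulsifier concentrate at the stated dosage, then inoculated with P. viticola. Plants were moistened and kept 1 day in an incubation cabin, and assessed 6 days after inoculation.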

For the next data set, the system named is Cochliobolus miyabeanus. The data set is described as follows: Example X: in vivo test on Cochliobolus miyabeanus (brown spot disease, rice/protective). The following applies: Bipolaris oryzae, 96 h, read-out: % Activity level.
The test system of data set [4] is Botrytis cinerea. The data set is described as follows: Example P: in vivo test on Botrytis cinerea (gray mould on bean/protective). The following applies: 48 h, bean, protective, 250 ppm active substance, assessed 2 days after inoculation, read-out: % Wirkungsgrad (activity level). In short, it runs like this:
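Protective test: young bean plants sprayed with the active substance preparation (emulsifier-based concentrate diluted in water) at the stated dosage. Once dry, each leaf received 2 agar pieces bearing Botrytis cinerea. Infection blotch size assessed 2 days after inoculation.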

The next data set concerns Fusarium proliferatum. The data set is described as follows: Example I: production of fumonisin FB1 by Fusarium proliferatum (microtitre plates). In kind it is cell-based. The settings on record: 120 h.
In data set [5] the test system is Sphaerotheca fuliginea. The data set is described as follows: Example L: in vivo test on Sphaerotheca fuliginea (powdery mildew on cucumber/protective). The settings on record: Podosphaera fuliginea, 168 h, cucumber, protective, assessment 7 days after inoculation, read-out: % Wirkungsgrad. The essentials: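 Young cucumber plants sprayed at stated dosage with compound in DMF/alkylaryl polyglycol ether emulsifier diluted in water; inoculated with S. fuliginea spores one day later. Kept in greenhouse at 70% relative humidity, 23° C; protective activity assessed 7 days after inoculation.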

The next data set has as its system Pyricularia grisea. In kind it is in vivo. The settings on record: 500 ppm; rice plants sprayed 24 hours before inoculation; scored after 6 days.
A short description of data set [6]: determination of the log P values by HPLC on a reverse phase column (C18), EEC-Directive 79/831 Annex V.A8.
The mark [7] stands for this setting: 72 h, read-out: % Inhibition des Pilzwachstums bei 50 μM.
Setting [8] is: 168 h, read-out: % Inhibition der DON/AcDON produktion bei 50 μM.

With “4-[3-(4-fluorophenyl)-1-isobutyl-1H-pyrazol-4-yl]-N-isopropylpyrimidin-2-amine [[I-h-1]]”, the “logP (pH 2.7)” value (pH 2.7) was determined as 1.81.

The chromatographic logP is a lipophilicity value derived from retention on a column. As to `CC(C)Cn1ncc(-c2ccncc2)c1-c1c(F)cccc1F` [Compound 2], the pest or weed control at 500 ppm was found to be 100% in the data set with Alternaria solani; 74% in the data set with Botrytis cinerea [1]; 98% in data set [2]; 85% with Peronospora parasitica; 93% in the data set with Sphaerotheca fuliginea [3]. For the same compound, in the data set “physchem”, the chromatographic logP turned out to be 1.86. The “% Activity level” value in the data set with Alternaria brassicae was determined as 77%.

Consider `CCC(C)n1cc(-c2ccncc2)c(-c2c(F)cccc2F)n1` (centres unmarked) [Compound 3], for which the results for the pest or weed control at 500 ppm (in data set [2]; in the data set with Peronospora parasitica; in the data set on Sphaerotheca fuliginea [3]) were 95%, 97% and 93%, respectively. Further, the chromatographic logP in the data set “physchem” is 1.82. In addition, the “% Activity level” value in the data set on Alternaria brassicae was determined as 88%.

As for `CC(C)n1ncc(-c2ccncc2)c1-c1c(F)cccc1F` [Compound 10], the pest or weed control at 500 ppm in the data set with Botrytis cinerea [1] is 73%; in data set [2] it was 95%; in the data set on Peronospora parasitica, 85%; in the data set on Sphaerotheca fuliginea [3], 80%. For the same compound, the chromatographic logP in “physchem” worked out at 1.54. Further, in the data set on Alternaria brassicae, the “% Activity level” value is on record as 85%.

For `COCC(=O)Nc1cc(-c2cn(C(C)C)nc2-c2ccc(F)cc2)ccn1` [Compound 40], the pest or weed control at 100 ppm in the data set with Venturia inaequalis came to 97%; in the data set on Plasmopara viticola, 72%. The pest or weed control at 500 ppm with Botrytis cinerea [1] was determined as 100%; in data set [2] it was 81%; in the data set with Peronospora parasitica, 98%; with Puccinia recondita, 86%; in the data set with Sphaerotheca fuliginea [3], 100%. Further, the inhibition at 50 µM with Fusarium graminearum (setting [7]) came out at 100%; in the data set with Fusarium graminearum (setting [8]), 100%; in the data set with Aspergillus parasiticus (50 μM, 7 days at 20° C., read-out: Inhibition der Aflatoxin produktion bei 50 μM), 99%; with Aspergillus parasiticus (read-out: % Inhibition des Pilzwachstums bei 50 μM), 88%; with Fusarium proliferatum (Fusarium proliferatum growth, OD 620, 5 days, read-out: % Inhibition des Pilzwachstums bei 50 μM) it was 98%; with Fusarium proliferatum (Fusarium proliferatum, 5 days at 20° C., HPLC-MS/MS, read-out: % Inhibition der FB1 produktion bei 50 μM), 100%. In “physchem”, the chromatographic logP came to 2.59. Besides, the pest or weed control at 250 ppm in the data set on Pyricularia oryzae came out at 95%; in the data set with Cochliobolus miyabeanus, 85%; in the data set with Botrytis cinerea [4] it was 100%.

In the case of `CCC(C)n1cc(-c2ccncc2)c(-c2ccc(F)cc2)n1` (centres unmarked) [Compound 91], the pest or weed control at 500 ppm in the data set on Sphaerotheca fuliginea [5] stood at 100%; in the data set on Alternaria solani, 95%; with Peronospora parasitica, 89%; with Puccinia recondita, 94%; with Sphaerotheca fuliginea [3], 88%. Besides, the chromatographic logP in the data set “physchem” was determined as 1.5. Also, the “% Activity level” value in the data set on Pyricularia grisea was 75%.

With `CC(C)Cn1cc(-c2ccnc3c2C(C)(C)C(=O)N3C)c(-c2ccc(F)cc2)n1` [Compound 148], the chromatographic logP in “physchem” was 3.68. For the same compound, the “% Activity level” value in the data set with Pyricularia grisea worked out at 71%.

In the case of `CCOC(=O)Nc1cc(-c2cn(CC(F)F)nc2-c2ccc(F)cc2)ccn1` [Compound 241], in the data set on Alternaria solani, the pest or weed control at 500 ppm was 94%. This compound displayed a chromatographic logP in data set [6] of 2.45.

For `CCOC(=O)Nc1cc(-c2cn(CC3CC3(Cl)Cl)nc2-c2ccc(F)cc2)ccn1` (centres unmarked) [Compound 264], the values for the inhibition at 50 µM in the data set with Fusarium graminearum (setting [7]) and with Fusarium graminearum (setting [8]) were 17% and 99%, respectively. For the same compound, in data set [6], the chromatographic logP was 3.37.

As for `Fc1ccc(-c2n[nH]cc2-c2ccncc2)cc1` [[IX-1], 4-[3-(4-Fluorophenyl)-1H-pyrazol-4-yl]pyridine hydrochloride], the chromatographic logP in [6] (pH 2.7) was 0.65.

For the compound `Cc1cc(F)ccc1-c1c(-c2ccncc2)cnn1C1CCCCO1` (centres unmarked) [[X-5], 4-[5-(4-fluoro-2-methylphenyl)-1-(tetrahydro-2H-pyran-2-yl)-1H-pyrazol-4-yl]pyrid], the “LogP (pH 2.3)” value was 1.40.

For the compound `Cc1cc(-c2c(-c3ccncc3)cnn2C2CCCCO2)ccc1F` (centres unmarked) [[X-7], 4-[5-(4-fluoro-3-methylphenyl)-1-(tetrahydro-2H-pyran-2-yl)-1H-pyrazol-4-yl]pyrid], the “LogP (pH 2.3)” value worked out at 1.47.

Regarding `CC(=O)Nc1ccc(-c2c(-c3ccncc3)cnn2C2CCCCO2)cc1` (centres unmarked) [[X-13]], the “LogP (pH 2.3)” value amounted to 0.97.

In data set [6] (pH 2.7), `CCC[CH2][Sn]([CH2]CCC)([CH2]CCC)[c]1c(-c2ccncc2)cnn1C1CCCCO1` (centres unmarked) [[XI-1], 4-[1-(Tetrahydro-2H-pyran-2-yl)-5-(tributylstannyl)-1H-pyrazol-4-yl]pyridine] had a chromatographic logP of 5.09.

`c1cc(-c2cnn(C3CCCCO3)c2)ccn1` (centres unmarked) [[XII-1], 4-[1-(Tetrahydro-2H-pyran-2-yl)-1H-pyrazol-4-yl]pyridine] had a chromatographic logP in [6] (pH 2.7) of 0.38.

As for “Mixture of 4-bromo-3-(4-fluorophenyl)-1-isopropyl-1H-pyrazole and 4-bromo-5-(4-fluoro-phenyl)-1-isopropyl-1H-pyrazole [[VI-1]]”, where the note is “pH 2.7”, the “logP (pH 2.7)” value is reported as 3.96 and the “logP (pH 2.7), minor isomer” value is recorded as 3.68.

As to “N-Benzyl-4-[3-(4-fluorophenyl)-1-isopropyl-1H-pyrazol-4-yl]pyrimidin-2-amine [[I-f-1]]”, the “logP (pH 2.7)” value (pH 2.7) is 3.31.
